Experimental data taken from US20250313535A1, “ALPHA 4 BETA 7 INTEGRIN MODULATORS AND USES THEREOF” (DICE MOLECULES SV, INC., priority 2022, published 2025).

Assays:
Format in all cases: cell-based
[1] = target: T1, α4β7 integrin (Homo sapiens (Human), UniProt P13612+P26010); experiment: Integrin Adhesion Assay: Protocol 4 (MAdCAM-coated plate, RPMI-8866 cells with stable LOF mutation of the ITGB1 gene)
In short: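 RPMI-8866 cells with CRISPR/Cas9 knockout of ITGB1 (2×10^6/mL) were added to MAdCAM-coated wells with compound (1% DMSO) in HEPES/NaCl buffer with 1 mM MnCl2, 0.1 mM CaCl2 and 1% BSA, then incubated 1 h at 37 °C. After four washes, adherent cells were quantified by CellTiter-Glo luminescence. Percent inhibition versus DMSO and control compound was fitted to 4-parameter curves.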

[2] = target: T1, α4β7 integrin; experiment: Integrin Adhesion Assay: Protocol 1 (MAdCAM-coated plate, RPMI-8866 cells, CellTiter GLO readout)
In short: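 RPMI-8866 cells (2×10^6 per mL) added with compounds (1% DMSO) to MAdCAM-coated wells blocked in HEPES/NaCl buffer with 1 mM MnCl2, 0.1 mM CaCl2, 1% BSA; 1 h at 37° C, 5% CO2. After four washes, bound cells read by CellTiter GLO luminescence; % inhibition vs DMSO and control wells, 4-parameter fit.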

[3] = target: α4β1 integrin (Homo sapiens (Human), UniProt P05556+P13612); experiment: Integrin Adhesion Assay: Protocol 5 (VCAM-coated plate, RPMI-8866 cells with stable LOF mutation of the ITGB7 gene); details: RPMI-8866 cells with stable LOF mutation of the ITGB7 gene; read-out: Mean IC50 α4β1 KO^b
In short: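 RPMI-8866 B cells with CRISPR/Cas9 ITGB7 knockout (clonal, verified by flow cytometry) adhered to VCAM-coated wells for 1 h at 37° C in HEPES/NaCl buffer with 1 mM MnCl2, 0.1 mM CaCl2, 1% BSA, 1% DMSO. Bound cells quantified by CellTiter-Glo luminescence after washing; % inhibition versus DMSO and control, 4-parameter fit.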

[4] = RPMI-8866 cells with stable LOF mutation of the ITGB1 gene, read-out: Mean IC50 α4β7 KO^a

T1 sequence (P13612 34-1032): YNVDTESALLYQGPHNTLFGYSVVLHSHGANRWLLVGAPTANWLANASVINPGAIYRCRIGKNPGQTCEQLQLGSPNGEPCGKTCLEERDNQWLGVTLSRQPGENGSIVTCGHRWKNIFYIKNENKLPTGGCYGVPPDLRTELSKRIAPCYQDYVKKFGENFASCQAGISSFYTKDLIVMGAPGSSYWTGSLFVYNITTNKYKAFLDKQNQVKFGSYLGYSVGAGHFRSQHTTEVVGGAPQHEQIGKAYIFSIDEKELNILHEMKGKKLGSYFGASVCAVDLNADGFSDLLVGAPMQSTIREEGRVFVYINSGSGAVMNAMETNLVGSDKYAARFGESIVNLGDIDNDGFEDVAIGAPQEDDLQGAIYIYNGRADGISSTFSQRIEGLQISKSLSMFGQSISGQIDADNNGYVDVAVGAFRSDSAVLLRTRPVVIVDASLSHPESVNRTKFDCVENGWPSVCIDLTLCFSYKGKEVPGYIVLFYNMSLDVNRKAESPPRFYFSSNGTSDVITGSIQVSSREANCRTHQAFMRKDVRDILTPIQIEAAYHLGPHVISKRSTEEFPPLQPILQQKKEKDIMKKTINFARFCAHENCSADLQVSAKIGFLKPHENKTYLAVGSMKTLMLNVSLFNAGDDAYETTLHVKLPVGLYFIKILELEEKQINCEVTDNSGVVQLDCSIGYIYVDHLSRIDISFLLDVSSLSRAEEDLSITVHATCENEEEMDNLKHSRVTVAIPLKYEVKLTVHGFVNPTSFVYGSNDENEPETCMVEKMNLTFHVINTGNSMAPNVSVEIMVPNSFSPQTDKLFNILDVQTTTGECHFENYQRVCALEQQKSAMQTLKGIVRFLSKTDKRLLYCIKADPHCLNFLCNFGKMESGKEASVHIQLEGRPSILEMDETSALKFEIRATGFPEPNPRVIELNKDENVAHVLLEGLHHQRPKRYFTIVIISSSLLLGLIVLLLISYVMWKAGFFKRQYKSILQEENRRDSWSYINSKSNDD
T1 sequence (P26010 20-798): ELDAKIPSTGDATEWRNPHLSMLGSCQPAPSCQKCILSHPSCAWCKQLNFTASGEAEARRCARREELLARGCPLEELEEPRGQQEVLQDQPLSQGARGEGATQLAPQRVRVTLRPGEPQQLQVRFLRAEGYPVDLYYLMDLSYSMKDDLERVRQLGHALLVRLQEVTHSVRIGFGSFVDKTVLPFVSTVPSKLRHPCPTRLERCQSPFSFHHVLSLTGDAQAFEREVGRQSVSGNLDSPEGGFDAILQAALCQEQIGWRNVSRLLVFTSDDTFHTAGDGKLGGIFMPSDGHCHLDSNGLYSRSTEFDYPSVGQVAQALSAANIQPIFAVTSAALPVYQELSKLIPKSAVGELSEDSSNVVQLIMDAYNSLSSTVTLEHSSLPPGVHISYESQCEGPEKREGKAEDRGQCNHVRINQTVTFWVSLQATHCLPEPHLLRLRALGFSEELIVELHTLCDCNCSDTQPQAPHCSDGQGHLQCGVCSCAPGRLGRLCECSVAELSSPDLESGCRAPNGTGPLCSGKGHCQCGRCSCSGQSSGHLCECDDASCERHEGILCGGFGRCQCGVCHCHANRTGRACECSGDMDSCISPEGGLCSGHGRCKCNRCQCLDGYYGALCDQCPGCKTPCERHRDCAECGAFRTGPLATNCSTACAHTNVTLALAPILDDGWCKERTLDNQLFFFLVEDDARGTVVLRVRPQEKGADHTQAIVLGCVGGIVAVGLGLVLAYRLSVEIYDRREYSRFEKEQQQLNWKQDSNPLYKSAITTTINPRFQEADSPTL
α4β1 integrin, sequence (P13612 34-1032): as the sequence (P13612 34-1032) above
α4β1 integrin, sequence (P05556 21-798): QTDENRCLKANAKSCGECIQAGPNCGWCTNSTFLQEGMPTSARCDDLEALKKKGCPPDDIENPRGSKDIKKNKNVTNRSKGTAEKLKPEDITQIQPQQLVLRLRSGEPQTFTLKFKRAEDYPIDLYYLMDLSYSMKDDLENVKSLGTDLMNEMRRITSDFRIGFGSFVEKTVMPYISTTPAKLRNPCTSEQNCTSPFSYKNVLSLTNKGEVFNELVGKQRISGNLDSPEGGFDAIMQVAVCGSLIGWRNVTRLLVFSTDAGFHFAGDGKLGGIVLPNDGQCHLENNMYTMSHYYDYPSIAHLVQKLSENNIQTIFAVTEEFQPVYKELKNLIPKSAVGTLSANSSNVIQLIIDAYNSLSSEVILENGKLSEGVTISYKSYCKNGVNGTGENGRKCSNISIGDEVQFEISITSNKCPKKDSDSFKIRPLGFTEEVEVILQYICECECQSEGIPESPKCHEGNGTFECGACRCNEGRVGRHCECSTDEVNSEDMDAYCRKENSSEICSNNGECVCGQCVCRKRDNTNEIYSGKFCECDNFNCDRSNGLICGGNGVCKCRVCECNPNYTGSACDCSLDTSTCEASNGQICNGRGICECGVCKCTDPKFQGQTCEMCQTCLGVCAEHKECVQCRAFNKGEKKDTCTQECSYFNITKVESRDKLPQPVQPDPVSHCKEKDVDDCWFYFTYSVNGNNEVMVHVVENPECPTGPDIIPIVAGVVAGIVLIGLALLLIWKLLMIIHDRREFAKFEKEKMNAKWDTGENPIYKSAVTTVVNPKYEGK

With `Cn1c(=O)c(-c2cccc3c(C[C@H](NC(=O)C45CC(N6CCOCC6)(C4)C5)C(=O)O)cccc23)c(C(F)(F)F)c2ccccc21` [Compound 459] the IC50 [1, 4] was 100 to 1000 nM and the IC50 [2] was 100 to 1000 nM.

`Cn1c(=O)c(-c2cccc3c(C[C@H](NC(=O)c4c(F)cc(C5CCNC5)cc4F)C(=O)O)cccc23)c(C(F)(F)F)c2ccccc21` (stereo partly drawn) [Compound 366] was tested, and the IC50 [1, 4] was 100 to 1000 nM and the IC50 [2] was 100 to 1000 nM.

Compound `Cc1cccnc1-c1ccc(F)c(C(=O)N[C@@H](Cc2cccc3c(-c4c(C(F)(F)F)c5ccccc5n(C)c4=O)cccc23)C(=O)O)c1F` [Compound 316] has an IC50 [1, 4] of 10 to 100 nM, an IC50 [2] of 100 to 1000 nM and an IC50 [3] greater than 1000 nM.

With `CC[C@@](Cc1cccs1)(C(=O)N[C@@H](Cc1cccc2c(-c3c(C(F)(F)F)ccn(C)c3=O)nccc12)C(=O)O)c1ccccc1` [Compound 291] the IC50 [1, 4] was 100 to 1000 nM and the IC50 [2] was 100 to 1000 nM.

With `Cn1c(=O)c(-c2cccc3c(C[C@H](NC(=O)c4c(F)cc(N5CCCCC5)cc4F)C(=O)O)cccc23)c(C(F)(F)F)c2ccccc21` [Compound 354] the IC50 [1, 4] was 100 to 1000 nM, the IC50 [2] was 100 to 1000 nM and the IC50 [3] was greater than 1000 nM.

`Cn1c(=O)c(-c2cccc3c(C[C@H](NC(=O)c4c(F)cc(C5CCCOC5)cc4F)C(=O)O)cccc23)c(C(F)(F)F)c2ccccc21` (stereo partly drawn) [Compound 374] showed an IC50 [1, 4] of 100 to 1000 nM and an IC50 [2] of 100 to 1000 nM.

For `COCCc1cc(F)c(C(=O)N[C@@H](Cc2cccc3c(-c4c(C(F)(F)F)c5ccccc5n(C)c4=O)cccc23)C(=O)O)c(F)c1` [Compound 368], the IC50 [1, 4] was 100 to 1000 nM and the IC50 [2] was 100 to 1000 nM.

For `Cn1c(=O)c(-c2cccc3c(C[C@H](NC(=O)c4c(F)cc([C@H]5C[C@@H](N(C)C)C5)cc4F)C(=O)O)cccc23)c(C(F)(F)F)c2ccccc21` [Compound 416], the IC50 [1, 4] was 100 to 1000 nM and the IC50 [2] was 100 to 1000 nM.

With `Cc1cccc(C)c1-c1cc(C(=O)N[C@@H](Cc2cccc3c(-n4c(=O)cc(CCN5CC(F)C5)n(C)c4=O)cccc23)C(=O)O)c(F)c(C(F)(F)F)c1` [Compound 1056] the IC50 ([1]; Protocol 4, RPMI-8866 cells with LOF mutation of ITGB1, MAdCAM, read-out: Mean IC50 α4β7 KO) was greater than 1000 nM and the IC50 ([2]; protocol not given) was 100 to 1000 nM.

In the case of `Cn1ccc(C(F)(F)F)c(-c2cccc3c(C[C@H](NC(=O)c4c(F)cc(N5CCOC[C@H]5c5ccccc5)cc4F)C(=O)O)cccc23)c1=O` [Compound 438], the IC50 [1, 4] is reported as 10 to 100 nM and the IC50 [2] is reported as 100 to 1000 nM.

`CN(C)CC1CN(c2cc(F)c(C(=O)N[C@@H](Cc3cccc4c(-c5c(C(F)(F)F)c6ccccc6n(C)c5=O)cccc34)C(=O)O)c(F)c2)CCO1` (stereo partly drawn) [Compound 335] showed an IC50 [1, 4] of 100 to 1000 nM and an IC50 [2] of 100 to 1000 nM.

`CN1CCC(c2cc(F)c(C(=O)N[C@@H](Cc3cccc4c(-c5c(C(F)(F)F)c6ccccc6n(C)c5=O)cccc34)C(=O)O)c(F)c2)C1` (stereo partly drawn) [Compound 372] was tested, and the IC50 [1, 4] was 100 to 1000 nM and the IC50 [2] was 100 to 1000 nM.

`Cn1c(=O)c(-c2cccc3c(C[C@H](NC(=O)[C@]4(C(F)(F)F)CC[C@H](N5CCOC[C@@H]5C(F)(F)F)CC4)C(=O)O)cccc23)c(C(F)(F)F)c2ccccc21` [Compound 423] showed an IC50 [1, 4] of 100 to 1000 nM and an IC50 [2] of 100 to 1000 nM.

Compound `Cn1c(=O)c(-c2cccc3c(C[C@H](NC(=O)c4c(F)cc(N5CCC(CO)C5)cc4F)C(=O)O)cccc23)c(C(F)(F)F)c2ccccc21` (stereo partly drawn) [Compound 462] has an IC50 [1, 4] of 100 to 1000 nM and an IC50 [2] of 100 to 1000 nM.

`Cn1c(=O)c(-c2cccc3c(C[C@H](NC(=O)[C@]4(C)CC[C@H](N5CC(F)(F)C5)CC4)C(=O)O)cccc23)c(C(F)(F)F)c2ccccc21` [Compound 400] showed an IC50 [1, 4] of 100 to 1000 nM and an IC50 [2] of 100 to 1000 nM.

`Cn1c(=O)c(-c2cccc3c(C[C@H](NC(=O)c4c(F)cccc4C(F)(F)F)C(=O)O)cccc23)c(C(F)(F)F)c2ccccc21` [Compound 443] was tested, and the IC50 [1, 4] was greater than 1000 nM and the IC50 [2] was 100 to 1000 nM.

In the case of `Cn1c(=O)c(-c2cccc3c(C[C@H](NC(=O)c4c(F)cc(N5CCOC(CN6CCCC6)C5)cc4F)C(=O)O)cccc23)c(C(F)(F)F)c2ccccc21` (stereo partly drawn) [Compound 339], the IC50 [1, 4] is reported as 100 to 1000 nM and the IC50 [2] is reported as 100 to 1000 nM.

For `Cn1c(=O)c(-c2cccc3c(C[C@H](NC(=O)c4c(F)ccc(C5CCC(F)(F)CC5)c4F)C(=O)O)cccc23)c(C(F)(F)F)c2ccccc21` [Compound 382], the IC50 [1, 4] was 100 to 1000 nM and the IC50 [2] was 100 to 1000 nM.

`Cn1c(=O)c(-c2cccc3c(C[C@H](NC(=O)c4c(F)cc(NC5(C(F)F)CC5)cc4F)C(=O)O)cccc23)c(C(F)(F)F)c2ccccc21` [Compound 387] showed an IC50 [1, 4] of 100 to 1000 nM and an IC50 [2] of 100 to 1000 nM.

For `Cn1c(=O)c(-c2cccc3c(C[C@H](NC(=O)c4c(F)cc(N5CC(F)(F)OC(F)(F)C5)cc4F)C(=O)O)cccc23)c(C(F)(F)F)c2ccccc21` [Compound 341], the IC50 [1, 4] was 100 to 1000 nM and the IC50 [2] was 100 to 1000 nM.
